According to patent publication US8563714B2, “Bridged spiro [2.4] heptane derivatives as ALX receptor and/or FPRL2 agonists” (Actelion Pharmaceuticals Ltd., priority 2009, dated 2013):

Assays:
human ALX receptor = target: T1, human ALX receptor (Homo sapiens, UniProt P25090); experiment: Intracellular calcium measurements (FLIPR), agonistic activity in HEK293-hALXR-Gα16 cells; assay type: cell-based; details: Fluo-4 calcium FLIPR, normalized to WKYMVm 10 nM
T1 construct: expressed in transfected cells; host or cells: HEK293 (HEK293-hALXR-Gα16)
T1 sequence (P25090 1-351): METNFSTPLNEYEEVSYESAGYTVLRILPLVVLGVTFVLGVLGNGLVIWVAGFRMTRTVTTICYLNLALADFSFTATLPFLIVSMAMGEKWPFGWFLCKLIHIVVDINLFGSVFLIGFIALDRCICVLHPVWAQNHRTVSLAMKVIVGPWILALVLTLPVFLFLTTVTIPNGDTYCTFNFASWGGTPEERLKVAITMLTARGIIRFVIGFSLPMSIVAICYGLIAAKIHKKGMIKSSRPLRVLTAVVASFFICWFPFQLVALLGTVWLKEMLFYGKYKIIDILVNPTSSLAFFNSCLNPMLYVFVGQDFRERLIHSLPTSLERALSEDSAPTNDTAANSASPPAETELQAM
In short: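 HEK293 cells expressing hALXR and Gα16 were loaded with 1 μM Fluo-4 AM and 20 mM HEPES for 60 min at 37°C, then exposed to serially diluted compound. FLIPR fluorescence was read at ex 488/em 540 nm. Baseline-subtracted peak responses were normalized to 10 nM WKYMVm.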

human FPRL2 = target: T2, human FPRL2 (Homo sapiens, UniProt P25089); experiment: Intracellular calcium measurements (FLIPR), agonistic activity in HEK293-hFPRL2-Gα16 cells; assay type: cell-based; details: Fluo-4 calcium FLIPR, normalized to GLY14-Humanin 100 nM
T2 construct: expressed in transfected cells; host or cells: HEK293 (HEK293-hFPRL2-Gα16)
T2 sequence (P25089 1-353): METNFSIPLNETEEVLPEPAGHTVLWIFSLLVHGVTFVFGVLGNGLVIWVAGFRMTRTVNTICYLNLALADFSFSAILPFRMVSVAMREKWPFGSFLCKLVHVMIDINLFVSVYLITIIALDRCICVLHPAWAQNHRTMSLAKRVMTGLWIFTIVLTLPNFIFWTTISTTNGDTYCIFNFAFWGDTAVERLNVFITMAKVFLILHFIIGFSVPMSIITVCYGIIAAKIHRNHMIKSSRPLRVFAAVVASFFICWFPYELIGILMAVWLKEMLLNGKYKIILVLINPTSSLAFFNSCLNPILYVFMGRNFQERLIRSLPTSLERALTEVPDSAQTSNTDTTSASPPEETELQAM
In short: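 Peak values after baseline subtraction are expressed relative to 100 nM Gly14-Humanin; compounds diluted in assay buffer from 10 mM DMSO stocks.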

| EC50 (human ALX receptor) [nM] | EC50 (human FPRL2) [nM] | Structure (SMILES) |
| --- | --- | --- |
| 0.87 | 33 | O=C(NCCCCN1CCCC1)[C@H]1[C@H](C(=O)Nc2ccc(Br)c(F)c2)[C@@H]2C=C[C@H]1C21CC1 [Example 288, (5R)—N^5-(4-Bromo-3-fluorophenyl)-(6R)—N^6-(4-pyrrolidino-butyl)-(4S,7R)-[4,7-ethenylene-spiro[2.4]heptane]-5,6-dicarboxamide] |
| 1.6 | 214 | O=C(NCCCCN1CCCC1)[C@H]1[C@H](C(=O)Nc2ccc(Cl)nc2)[C@@H]2C=C[C@H]1C21CC1 [Example 289, (5R)—N^5-(2-Chloro-pyridin-5-yl)-(6R)—N^6-(4-pyrrolidino-butyl)-(4S,7R)-[4,7-ethenylene-spiro[2.4]heptane]-5,6-dicarboxamide] |
| 2.9 | 187 | O=C(NCCCCN1CCCC1)[C@H]1[C@H](C(=O)Nc2ccc(Br)cn2)[C@@H]2C=C[C@H]1C21CC1 [Example 294, (5R)—N^5-(5-Bromo-pyridin-2-yl)-(6R)—N^6-(4-pyrrolidino-butyl)-(4S,7R)-[4,7-ethenylene-spiro[2.4]heptane]-5,6-dicarboxamide] |
| 1.3 | 116 | O=C(NCCCCN1CCCC1)[C@H]1[C@H](C(=O)Nc2ccc(Br)cc2F)[C@@H]2C=C[C@H]1C21CC1 [Example 295, (5R)—N^5-(4-Bromo-2-fluorophenyl)-(6R)—N^6-(4-pyrrolidino-butyl)-(4S,7R)-[4,7-ethenylene-spiro[2.4]heptane]-5,6-dicarboxamide] |
| 275 | 193 | Cc1cc(Br)ccc1NC(=O)[C@H]1[C@H](C(=O)NCCCCN2CCCC2)[C@H]2C=C[C@@H]1C21CC1 [Example 296, (5R)—N^5-(4-Bromo-2-methylphenyl)-(6R)—N^6-(4-pyrrolidino-butyl)-(4S,7R)-[4,7-ethenylene-spiro[2.4]heptane]-5,6-dicarboxamide] |
| 367 | 28 | O=C(NCCCCN1CCCC1)[C@H]1[C@H](C(=O)Nc2ccc(Br)c(Cl)c2)[C@@H]2C=C[C@H]1C21CC1 [Example 297, (5R)—N^5-(4-Bromo-3-chlorophenyl)-(6R)—N^6-(4-pyrrolidino-butyl)-(4S,7R)-[4,7-ethenylene-spiro[2.4]heptane]-5,6-dicarboxamide] |
| 213 | 208 | O=C(NCCCCN1CCCC1)[C@H]1[C@H](C(=O)NCc2cnc(Br)s2)[C@@H]2C=C[C@H]1C21CC1 [Example 312, (5R)—N^5-(2-Bromo-thiazol-5-yl-methyl)-(6R)—N^6-(4-pyrrolidino-butyl)-(4S,7R)-[4,7-ethenylene-spiro[2.4]heptane]-5,6-dicarboxamide] |
| 103 | 204 | O=C(NCCCCN1CCCC1)[C@H]1[C@H](C(=O)Nc2cc(F)c(Br)cc2F)[C@@H]2C=C[C@H]1C21CC1 [Example 314, (5R)—N^5-(4-Bromo-2,5-difluorophenyl)-(6R)—N^6-(4-pyrrolidino-butyl)-(4S,7R)-[4,7-ethenylene-spiro[2.4]heptane]-5,6-dicarboxamide] |
| 9.4 | 296 | O=C(NCCCCN1CCCC1)[C@H]1[C@H](C(=O)Nc2c(F)cc(Br)cc2F)[C@@H]2C=C[C@H]1C21CC1 [Example 315, (5R)—N^5-(4-Bromo-2,6-difluorophenyl)-(6R)—N^6-(4-pyrrolidino-butyl)-(4S,7R)-[4,7-ethenylene-spiro[2.4]heptane]-5,6-dicarboxamide] |
| 236 | 122 | O=C(NCCCCN1CCCC1)[C@H]1[C@H](C(=O)Nc2ccc(Br)c(F)c2F)[C@@H]2C=C[C@H]1C21CC1 [Example 316, (5R)—N^5-(4-Bromo-2,3-difluorophenyl)-(6R)—N^6-(4-pyrrolidino-butyl)-(4S,7R)-[4,7-ethenylene-spiro[2.4]heptane]-5,6-dicarboxamide] |
| 28 | 44 | O=C(NCCCCN1CCCC1)[C@H]1[C@H](C(=O)NCc2c(F)cc(Br)cc2F)[C@@H]2C=C[C@H]1C21CC1 [Example 317, (5R)—N^5-(4-Bromo-2,6-difluorophenyl-methyl)-(6R)—N^6-(4-pyrrolidin-1-yl-butyl)-(4S,7R)-[4,7-ethenylene-spiro[2.4]heptane]-5,6-dicarboxamide] |
| 13 | 18 | O=C(NCCCCN1CCCC1)[C@H]1[C@H](C(=O)NCc2ccc(Br)cc2F)[C@@H]2CC[C@H]1C21CC1 [Example 318, (5R)—N^5-(4-Bromo-2-fluorophenyl-methyl)-(6R)—N^6-(4-pyrrolidino-butyl)-(4S,7R)-[4,7-ethylene-spiro[2.4]heptane]-5,6-dicarboxamide] |
| 117 | 15 | O=C(NCCCCN1CCCC1)[C@H]1[C@H](C(=O)NCc2ccc(Br)c(F)c2)[C@@H]2C=C[C@H]1C21CC1 [Example 321, (5R)—N^5-(4-Bromo-3-fluorophenyl-methyl)-(6R)—N^6-(4-pyrrolidino-butyl)-(4S,7R)-[4,7-ethenylene-spiro[2.4]heptane]-5,6-dicarboxamide] |

More lines, now with the values behind:

| Structure (SMILES) | EC50 (human ALX receptor) [nM] | EC50 (human FPRL2) [nM] |
| --- | --- | --- |
| COc1ccc(NC(=O)[C@H]2[C@H](C(=O)NCCC(=O)O)[C@H]3C=C[C@@H]2C32CC2)cc1 [Example 287, (5R)—N^5-(4-Methoxyphenyl)-(6R)—N^6-(3-hydroxyl-3-oxopropyl)-(4S,7R)-[4,7-ethenylene-spiro[2.4]heptane]-5,6-dicarboxamide] | 516 | > 25000 |
| COc1ccc(NC(=O)C2C(C(=O)NCCC(N)=O)C3C=CC2C32CC2)cc1 [Example 290, (5R)—N^5-(4-Methoxyphenyl)-(6R)—N^6-(3-amino-3-oxopropyl)-(4S,7R)-[4,7-ethenylene-spiro[2.4]heptane]-5,6-dicarboxamide] | 32 | 1440 |
| NC(=O)CCNC(=O)[C@H]1[C@H](C(=O)NCc2ccc(Br)cc2)[C@@H]2CC[C@H]1C21CC1 [Example 291, (5R)—N^5-(4-Bromophenyl-methyl)-(6R)—N^6-(3-amino-3-oxopropyl)-(4S,7R)-[4,7-ethylene-spiro[2.4]heptane]-5,6-dicarboxamide] | 113 | > 25000 |
| NC(=O)CCNC(=O)[C@H]1[C@H](C(=O)NCc2ccc(Br)cc2F)[C@@H]2CC[C@H]1C21CC1 [Example 292, (5R)—N^5-(4-Bromo-2-fluorophenyl-methyl)-(6R)—N^6-(3-amino-3-oxopropyl)-(4S,7R)-[4,7-ethylene-spiro[2.4]heptane]-5,6-dicarboxamide] | 71 | 661 |
| COc1ccc(NC(=O)[C@H]2[C@H](C(=O)NCCC(N)=O)[C@H]3CC[C@@H]2C32CC2)cc1 [Example 293, (5R)—N^5-(4-Methoxyphenyl)-(6R)—N^6-(3-amino-3-oxopropyl)-(4S,7R)-[4,7-ethylene-spiro[2.4]heptane]-5,6-dicarboxamide] | 59 | 2370 |
| NC(=O)CCNC(=O)[C@H]1[C@H](C(=O)Nc2ccc(Cl)nc2)[C@@H]2CC[C@H]1C21CC1 [Example 298, (5R)—N^5-(2-Chloro-pyridin-5-yl)-(6R)—N^6-(3-amino-3-oxopropyl)-(4S,7R)-[4,7-ethylene-spiro[2.4]heptane]-5,6-dicarboxamide] | 24 | 4070 |
| Cc1ccc(NC(=O)[C@H]2[C@H](C(=O)NCCC(N)=O)[C@H]3C=C[C@@H]2C32CC2)nc1 [Example 313, (5R)—N^5-(5-Methyl-pyridin-2-yl)-(6R)—N^6-(3-amino-3-oxopropyl)-(4S,7R)-[4,7-ethenylene-spiro[2.4]heptane]-5,6-dicarboxamide] | 330 | > 25000 |
| NCCCCCNC(=O)[C@H]1[C@H](C(=O)NCc2ccc(Br)cc2F)[C@@H]2C=C[C@H]1C21CC1 [Example 319, (5R)—N^5-(4-Bromo-2-fluorophenyl-methyl)-(6R)—N^6-(5-amino-pentyl)-(4S,7R)-[4,7-ethenylene-spiro[2.4]heptane]-5,6-dicarboxamide] | 55 | 331 |
| NCCCCNC(=O)[C@H]1[C@H](C(=O)NCc2ccc(Br)cc2F)[C@@H]2C=C[C@H]1C21CC1 [Example 320, (5R)—N^5-(4-Bromo-2-fluorophenyl-methyl)-(6R)—N^6-(4-amino-butyl)-(4S,7R)-[4,7-ethenylene-spiro[2.4]heptane]-5,6-dicarboxamide] | 52 | 472 |
| NCCCCCNC(=O)C1C(C(=O)Nc2ncc(Br)s2)C2C=CC1C21CC1 [Example 322, (5R)—N^5-(5-Bromo-thiazol-2-yl)-(6R)—N^6-(5-amino-pentyl)-(4S,7R)-[4,7-ethenylene-spiro[2.4]heptane]-5,6-dicarboxamide] | 0.61 | 382 |
